Source: US5028727A, “Platinum-(IV)-diamine complex” (Nederlandse Organisatie Voor …, priority 1988, dated 1991)
“Also recorded” adds a separate entry of the source.

Assays:
[1] = tested on: M5076 sarcoma; experiment: Action against subcutaneously implanted M5076 sarcoma; assay type: in vivo, BDF1 mice; conditions: day 5, 9, 13 and 17
Method: The complex was also assessed for anti-tumour action against subcutaneously implanted M5076 sarcoma. BDF1 mice, 8 per group, were inoculated subcutaneously with a fragment of a M5076 tumour. The mice were treated intravenously starting 5 days after the implantation and again on days 9, 13 and 17. […] Four doses of the complex were tested. A comparison group treated with physiological saline solution and groups treated with cis-platinum are included in this experiment. The mice were assessed daily for survival and the tests were ended after 75 to 80 days.

[2] = tested on: B16 melanoma; experiment: Action against B16 melanoma; assay type: in vivo, BDF1 mice; conditions: day 1-9
Method: BDF1 mice, 10 per group, are inoculated intraperitoneally with 0.5 ml of a 10% (weight/vol) homogeneous tissue suspension of B16 melanoma. Intraperitoneal treatment with the active compound was started one day after the implantation and continued daily for a total of 9 days. The control group treated with a physiological saline solution and groups treated with cis-platinum were included in each experiment. The mice were assessed daily for survival and tests were stopped after 60 days. The mean survival time of the mice treated with the active agent relative to that of the comparison (% T/C) was used as a measure for the anti-tumour action. A compound is regarded as active with a % T/C of 125%.
=Dose is mg/kg per injection administered i.p. on day 1-9

[3] = tested on: HCT-116 human colon carcinoma; experiment: In vitro cytotoxicity, HCT-116 human colon carcinoma; assay type: cell-based; conditions: HCT116; 72 hours incubation; crystal violet
Method: (§1) Logarithmically growing cells were harvested by mild trypsinisation and 4,000 cells were added to a microtitre plate with 96 wells (Costar). […] Formalin (10%) in a phosphate-buffered physiological saline solution was added and the cells were fixed for 10 minutes.

[4] = tested on: tumour cells resistant to cis-platinum (A2780/124 and A2780/DDP); experiment: Action against tumour cells resistant to cis-platinum; assay type: cell-based, human
Method: For cis-platinum the corresponding values are 10 and 12.6 respectively.
as §1

[5] = tested on: A2780/124; experiment: In vitro cytotoxicity, A2780/124 sub-line resistant to cis-platinum; assay type: cell-based, human; conditions: for IC50: A2780/124, 72 hours incubation, crystal violet
Method: as §1

[6] = tested on: B16-F10 murine melanoma; experiment: In vitro cytotoxicity, B16-F10 murine melanoma; assay type: cell-based; conditions: 72 hours incubation, crystal violet
Method: as §1

[7] = tested on: L1210 murine leukaemia; experiment: Activity against L1210 murine leukaemia; assay type: in vivo, CDF1 mice; conditions: for % T/C: once on day 1
Method: The platinum complex was investigated for anti-tumour action against L1210 murine leukaemia. CDF1 mice with a weight of 20 g were inoculated intraperitoneally with 10^6 ascitic cells of L1210 leukaemia. The administration of the active complex was started the day following the intraperitoneal implantation of the tumour. The complex was administered in diverse amounts by intraperitoneal injections. Groups of 6 mice were used for each dose and they were treated with a single dose of the complex on the treatment day. A group of ten control mice treated with a physiological saline solution was included in the experiment. Mice treated with cis-diamine-dichloro-platinum (cis-platinum) were included as positive comparisons. The mice were weighed before the treatment and again on the fifth or sixth day and the average change in weight was taken as a measure of the toxicity. The animals were assessed daily for mortality and the experiments were ended after 30 days. The tumour activity was determined on the basis of % T/C, which is the ratio of mean survival time of the group treated with the active complex relative to the mean survival time of the control group treated with a physiological saline solution times 100. The mice treated with physiological saline solution usually have a mean survival time of 7 days. A compound is regarded as active when this gives a T/C ≥125%.
=Dose is mg/kg administered i.p., once on day 1.

[8] = tested on: A2780 human ovary carcinoma; experiment: In vitro cytotoxicity, A2780 human ovary carcinoma; assay type: cell-based; conditions: 72 hours incubation, crystal violet
Method: as §1

[9] = tested on: A2780/DDP; experiment: In vitro cytotoxicity, A2780/DDP sub-line resistant to cis-platinum; assay type: cell-based, human; conditions: for IC50: A2780/DDP, 72 hours incubation, crystal violet
Method: as §1

[10] = tested on: tumours; conditions: Rosenberg et al., Nature 222 (1969); cited from earlier work
[11] = resistance criterion: ratio ≥4.0

## NCC1(CN)CCCC1.O=S(=O)([O-])[O-].[Cl][Pt+2][Cl] [TNO-40, Cis-sulphato-trans-dichloro-1,1-bis(aminomethyl)cyclopentane-platinum-(IV)]
[1]; 3 mg/kg i.v.
  % T/C: 126%
[1]; 4 mg/kg i.v.
  % T/C: 125%
[1]; 5 mg/kg i.v.
  toxicity: toxic
[1]; 6 mg/kg i.v.
  toxicity: toxic
[2]; 0.2 mg/kg per injection i.p.
  % T/C: 127%
[2]; 0.4 mg/kg per injection i.p.
  % T/C: 137%
[2]; 0.8 mg/kg per injection i.p.
  % T/C: 163%
[2]; 1.6 mg/kg per injection i.p.
  % T/C: 139%
[2]; 2.4 mg/kg per injection i.p.
  % T/C: 83%
[3]
  IC50: 16 µg/mL
[4]
  action against cell lines resistant to cis-platinum: exhibits an anti-tumor action; also recorded: surprisingly good action
[5]
  IC50: 21 µg/mL
[6]
  IC50: 7.4 µg/mL
[7]; 4 mg/kg i.p.
  % T/C: 193%
[7]; 6 mg/kg i.p.
  % T/C: 186%
[7]; 8 mg/kg i.p.
  % T/C: 180%
[7]; 2,5 mg/kg i.p.
  % T/C: 179%
[7]; active = T/C ≥125%, all doses investigated
  anti-tumour action against L1210 murine leukaemia: active at all doses investigated
[8]
  IC50: 6.4 µg/mL
[9]
  IC50: 23 µg/mL

## N.N.[Cl][Pt][Cl] [Cis-platinum, cis-diamine-dichloroplatinum]
[1]; 3 mg/kg i.v.
  % T/C: 134%
  T-C (mean time for tumours to reach 1 gram, treated relative to untreated): 18.3 days
[1]; 4 mg/kg i.v.
  % T/C: 135%
  T-C (mean time for tumours to reach 1 gram, treated relative to untreated): 16.3 days
[1]; 5 mg/kg i.v.
  % T/C: 131%
  T-C (mean time for tumours to reach 1 gram, treated relative to untreated): 20.5 days
[1]; 6 mg/kg i.v.
  % T/C: 121%
  T-C (mean time for tumours to reach 1 gram, treated relative to untreated): 20 days
[2]; 0.4 mg/kg per injection i.p.
  % T/C: 117%
[2]; 0.8 mg/kg per injection i.p.
  % T/C: 137%
[2]; 1.6 mg/kg per injection i.p.
  % T/C: 171%
[2]; 2.4 mg/kg per injection i.p.
  % T/C: 146%
[3]
  IC50: 8.5 µg/mL
[5]
  IC50: 23 µg/mL
[5]; [11]
  ratio IC50 A2780/124 to IC50 A2780: 10
[6]
  IC50: 9.8 µg/mL
[7]; 4 mg/kg i.p.
  % T/C: 131%
[7]; 6 mg/kg i.p.
  % T/C: 138%
[7]; 8 mg/kg i.p.
  % T/C: 131%
[7]; 10 mg/kg i.p.
  % T/C: 138%
[8]
  IC50: 2.3 µg/mL
[10]
  anti-tumour activity: very strong anti-tumour activity
[9]
  IC50: 28 µg/mL
[9]; [11]
  ratio IC50 A2780/DDP to IC50 A2780: 12.6
